Biological target: RAC-alpha serine/threonine-protein kinase (Homo sapiens, UniProt P31749)
Assay: Inhibition of protein kinase B alpha (Akt1) in fluorescent enzymatic assay

RAC-alpha serine/threonine-protein kinase, sequence (P31749 whole entry): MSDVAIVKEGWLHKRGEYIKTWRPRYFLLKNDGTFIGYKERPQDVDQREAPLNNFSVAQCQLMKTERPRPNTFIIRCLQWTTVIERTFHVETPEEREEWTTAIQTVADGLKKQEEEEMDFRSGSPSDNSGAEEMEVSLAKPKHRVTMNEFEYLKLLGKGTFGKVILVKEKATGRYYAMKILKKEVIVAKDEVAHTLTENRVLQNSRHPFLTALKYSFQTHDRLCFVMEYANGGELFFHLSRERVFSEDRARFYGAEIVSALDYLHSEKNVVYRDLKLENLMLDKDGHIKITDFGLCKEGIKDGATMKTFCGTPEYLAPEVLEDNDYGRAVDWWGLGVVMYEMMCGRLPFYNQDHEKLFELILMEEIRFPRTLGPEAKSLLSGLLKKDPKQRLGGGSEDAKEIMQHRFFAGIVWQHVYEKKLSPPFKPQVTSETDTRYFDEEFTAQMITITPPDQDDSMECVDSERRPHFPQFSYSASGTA

IC50: 60.2 µM
SMILES: CC1=C(C#N)c2nc(N)c(C#N)c(C)c2/C1=C/c1ccc(-c2cccc(C(=O)O)c2)o1

From ChEMBL document CHEMBL1143561, “Virtual docking approaches to protein kinase B inhibition” (J Med Chem, 2005)
